Counter-ions that a name gives are not always drawn.
Tests used:
ZIKV (FSS13025 strain) [1] = test: qRT-PCR of vRNA in human forebrain organoids treated 42 h or 48 h post-infection (FSS13025); assay type: cell-based, Zika virus; settings: HH added at 42 h or 48 h post-infection, additional 3 days
Protocol: Immunocytochemical analysis of D20+4 ZIKV-infected organoids treated with 15 μM AQ or DMSO or with mock infection (n=3). D20+4 organoids were stained for SOX2, ZIKV E and with DAPI to monitor the ZIKV infection rate. D20+4 organoids were also stained for Ki67, CAS3 and with DAPI to monitor the cell proliferation and apoptosis rate. […] Scale bars, 100 μm. (B) The expression dynamics of ZIKV vRNA (FSS13025 strain) in human forebrain organoids. qRT-PCR analysis to quantify the total and replicating (−) strand vRNA levels in the human forebrain organoids at different time points post-infection. […] (C) qRT-PCR analysis of human forebrain organoids that were treated with 25 μM HH or DMSO at 42 h or 48 h post-ZIKV (FSS13025 strain) infection and maintained for additional 3 days. p values were calculated by unpaired two-tailed Student's t-test. *p<0.05, **p<0.01 and ***p<0.001, if not mentioned specifically.
To further validate the effect of HH on ZIKV-infected brain organoids, we first monitored ZIKV vRNA expression dynamics in organoids using qRT-PCR analysis.
RNA Extraction and qRT-PCR. Total RNA of cultured cells and organs was extracted with RNeasy plus mini kit (Qiagen). vRNA from cell culture supernatant or mouse serum was extracted with QIAampe viral RNA mini kit (Qiagen). […] ZIKV vRNA levels were calculated using a standard curve generated using serial 10-fold dilutions of ZIKV vRNA.

ZIKV (FSS13025 strain) [2] = test: Therapeutic treatment of ZIKV (FSS13025 strain) infected SCID-beige mice; assay type: in vivo; settings: HH 100 mg/kg/day subcutaneously for 7 days from day 7 post-infection
Protocol: (A) Scheme of prophylactic treatment of HH in vivo. HH was administrated to SCID-Beige mice 12 h before infection with MR766 virus strain. HH was injected at a dose of 100 mg/kg/day subcutaneously and euthanized at day 7. (B) qRT-PCR analysis of total ZIKV vRNA in liver, spleen, kidney and brain of ZIKV infected mice. n=12 for liver, spleen and kidney and 20 for brain. (C) qRT-PCR analysis of total ZIKV vRNA in brains of ZIKV-infected mice treated with vehicle (n=14) or HH (n=8). […] (D-F) Immunohistochemical analysis of adult cortex. […] HH prevents infection in all cortical cells. Scale bar=100 μm in (D) and 10 μm in (E, F). (G-I) Immunohistochemical analysis of adult hippocampus. […] HH inhibits infection of all cells in the hippocampus. […] The mice were then euthanized and RNA from brains was analyzed using qRT-PCR. […] The mice were euthanized after 7 days treatment and RNA from brains was analyzed using qRT-PCR. (W, X) qRT-PCR analysis of total vRNA (W) and (−) strand RNA (X) in the brains of mice treated with vehicle (n=8) or HH (n=11) at day 7 post-infection. p values were calculated by one-way repeated measures ANOVA or two-way repeated measures ANOVA with a Bonferroni test for multiple comparisons. *p<0.05, **p<0.01 and ***p<0.001.
To evaluate the therapeutic potential of HH, we first monitored the kinetics of ZIKV infection (MR766 strain) in the adult mouse brain. […]

CN1CCC2=C[C@H](O)[C@H]3OC(=O)c4cc5c(cc4[C@H]3[C@@H]21)OCO5 [HH, hippeastrine hydrobromide]
total and replicating (-) ZIKV vRNA levels in forebrain organoids (ZIKV (FSS13025 strain) [1]): significantly decreased
total and replication (-) strand vRNA in mouse brain (ZIKV (FSS13025 strain) [2]): significantly decreased

From US11466020B2, “Compounds and compositions for inhibition and elimination of Zika infection and uses for same” (Cornell University, priority 2017, dated 2022)
